Structures can show the parent of a compound that is named as a salt.
Test system: rabbit saphenous vein
Test: Rabbit saphenous vein contraction
Details: not given
Experimental: Representative compounds of the present invention were tested in a rabbit saphenous vein contraction assay to measure their ability to mediate vasoconstriction. […] The tips of two 30-gauge stainless steel hypodermic needles bent into an L-shape were slipped into the polyethylene tubing. Vessels were gently pushed from the cannula onto the needles. The needles were then separated so that the lower one was attached with thread to a stationary glass rod and the upper one was tied with thread to the transducer. […] An initial optimum resting force of 1 gm was applied to the saphenous vein. Isometric contractions were recorded as changes in grams of force on a Beckman Dynograph with Statham UC-3 transducers and microscale accessory attachments. Tissues were allowed to equilibrate 1 to 2 hours before exposure to drugs. Cumulative agonist concentration-response curves were generated in tissues and no tissue was used to generate more than two agonist concentration-response curves. […] This vasoconstriction assay measures two important parameters, saphenous vein contraction (EC50) and maximal contraction as a % maximal KCl response (% man KCl).

corrected vasoconstriction EC50 (EC50 divided by %max KCl) [nM] | Compound
10.3 | CNS(=O)(=O)Cc1ccc2[nH]cc(CCN(C)C)c2c1 [sumatriptan]

Same assay, conditions: Oryctolagus cuniculus

EC50 [nM] | Compound
660 | CNS(=O)(=O)Cc1ccc2[nH]cc(CCN(C)C)c2c1 [sumatriptan]

Test system: not given
Test: not given
Details: not given

melting point | Compound
153 to 154 °C | CN1CCC(Oc2cccc(NC(=O)c3c(F)cccc3Cl)c2)CC1.Cl
213 °C | CN1CCC(Oc2cccc(NC(=O)c3ccc(F)cc3Cl)c2)CC1.Cl
155 to 160 °C | CC1CN(C)CCC1Oc1cccc(NC(=O)c2ccc(F)cc2Cl)n1.Cl (stereo not drawn)
91 °C | CCN1CCC(Oc2cccc(NC(=O)c3ccc(F)cc3Cl)c2)CC1.Cl
262 °C (dec.) | CCN1CCC(Oc2cccc(NC(=O)c3c(F)cccc3Cl)c2)CC1.Cl
136 °C (dec.) | CN1CCC(Oc2cccc(NC(=O)c3c(F)cc(F)cc3F)c2)CC1.Cl
139.6 °C | CN1CCC(Oc2cccc(NC(=O)c3c(F)cccc3Cl)n2)CC1.Cl
88.7 °C | CN1CCC(Oc2cccc(NC(=O)c3ccccc3OC(F)(F)F)n2)CC1.Cl
104.3 °C | CN1CCC(Oc2cccc(NC(=O)c3ccccc3Br)n2)CC1.Cl
261.4 °C | CN1CCC(Oc2cccc(NC(=O)c3c(F)cccc3F)n2)CC1.Cl
182.4 °C (dec.) | CN1CCC(Oc2cccc(NC(=O)c3ccc(F)c(F)c3F)n2)CC1.Cl
171.4 °C (dec.) | CN1CCC(Oc2cccc(NC(=O)c3cc(F)c(F)c(F)c3)n2)CC1.Cl
119 to 121 °C | CN1CCC(Oc2cccc(NC(=O)c3ccccc3OC(F)(F)F)c2)CC1.Cl
264 to 266 °C | CN1CCC(Oc2cccc(NC(=O)c3c(F)cc(F)cc3F)n2)CC1.Cl
135 to 136 °C | CN1CCC(Oc2cccc(NC(=O)c3ccccc3C(F)(F)F)c2)CC1.Cl
73 to 74 °C | CN1CCC(Oc2cccc(NC(=O)c3cccnc3)c2)CC1.Cl
172 to 175 °C | CN1CCC(Oc2cccc(NC(=O)c3ccncc3)c2)CC1.Cl
141 to 142 °C | CN1CCC(Oc2cccc(NC(=O)C3CCCCC3)c2)CC1.Cl
104 to 105 °C | CC(C)C(=O)Nc1cccc(OC2CCN(C)CC2)c1.Cl
95 to 97 °C | CN1CCC(Oc2cc(NC(=O)c3ccccc3OC(F)(F)F)ccc2Cl)CC1.Cl
259 °C (dec.) | CN1CCC(Oc2cc(NC(=O)c3ccccc3Cl)ccc2Cl)CC1.Cl
146 to 148 °C | CN1CCC(Oc2cc(NC(=O)c3ccccc3Br)ccc2Cl)CC1.Cl

melting point | Compound
261 °C (dec.) | CN1CCC(Oc2cc(NC(=O)c3c(F)cccc3F)ccc2Cl)CC1.Cl
257 °C (dec.) | CN1CCC(Oc2cc(NC(=O)c3ccc(F)cc3F)ccc2Cl)CC1.Cl
259 to 260 °C | CN1CCC(Oc2cc(NC(=O)c3c(F)cccc3Cl)ccc2Cl)CC1.Cl
269 °C (dec.) | CN1CCC(Oc2cccc(NC(=O)c3ccccc3Br)c2)CC1.Cl
> 270 °C | CN1CCC(Oc2cc(NC(=O)c3c(F)cc(F)cc3F)ccc2Cl)CC1.Cl
150 °C | CN1CCC(Oc2cc(F)cc(NC(=O)c3ccc(F)cc3)c2)CC1.Cl
136 to 138 °C | CN1CCC(Oc2cccc(NC(=O)c3c(F)cccc3F)c2)CC1.Cl
170 to 171 °C | CN1CCC(Oc2cccc(NC(=O)c3c(Cl)cccc3Cl)c2)CC1.Cl
131 to 133 °C | CN1CCC(Oc2cccc(NC(=O)c3ccc(Cl)cc3Cl)c2)CC1.Cl
145 °C | CN1CCC(Oc2cccc(NC(=O)c3ccc(F)cc3)n2)CC1(C)C (stereo not drawn) (as salt: salt)
135 to 137 °C | CN1CCC(Oc2cccc(NC(=O)c3ccc(F)cc3Cl)n2)CC1.Cl (hydrate or solvate)
203 to 205 °C | CN1CCC(Oc2cccc(NC(=O)c3ccc(F)cc3)n2)CC1.Cl (hydrate or solvate)
269 to 271 °C | CN1CCC(Oc2cccc(NC(=O)c3ccc(F)cc3F)n2)CC1.Cl (hydrate or solvate)
254 to 256 °C | CN1CCC(Oc2cccc(NC(=O)c3ccncc3)n2)CC1.Cl (hydrate or solvate)
88 to 90 °C | CN1CCC(Oc2cccc(NC(=O)c3ccccc3Cl)n2)CC1.Cl (hydrate or solvate)
251 to 253 °C | Cl.O=C(Nc1cccc(OC2CCNCC2)n1)c1ccc(F)cc1 (hydrate or solvate)
152 °C | C[C@H]1C[C@@H](Oc2cccc(NC(=O)c3ccc(F)cc3Cl)c2)CCN1C.Cl (single isomer, unassigned)
145 °C | C[C@H]1C[C@H](Oc2cccc(NC(=O)c3ccc(F)cc3Cl)c2)CCN1C.Cl (single isomer, unassigned)
260 °C | C[C@H]1C[C@H](Oc2cc(NC(=O)c3ccc(F)cc3Cl)ccc2C(C)(C)C)CCN1C.Cl (single isomer, unassigned)
238 °C | C[C@H]1CN(C)CC[C@H]1Oc1cccc(NC(=O)C2=CC=C(F)CC2Cl)n1 (single isomer, unassigned) (as salt: salt)
238 °C | C[C@@H]1CN(C)CC[C@@H]1Oc1cccc(NC(=O)C2=CC=C(F)CC2Cl)n1 (single isomer, unassigned) (as salt: salt)

Reference: patent publication US7608629B2, “(Piperidinyloxy)phenyl, (piperidinyloxy)pyridinyl, (piperidinylsulfanyl)phenyl and (piperidinylsulfanyl)pyridinyl compounds as 5-HT1F agonists” (Eli Lilly and Company, priority 2003, dated 2009)
